A short description of series [1]: Oral bioavailability CD-1 mouse at 30 mg/kg. The format is ADME, organism-based. Conditions: in vivo.
Another series concerns SW-620. Briefly: Cytotoxicity against human SW620 cells by MTT assay. The format is functional. In general terms: Tetrazolium dyes change colour on reduction, which living cells bring about.
The next series deals with C-33-A. Briefly: Cytotoxicity against human C-33-A cells by MTT assay. It counts as functional.
A further series has as its system K-562R. Nature of the series: Cytotoxicity against human K-562R cells by MTT assay. The format is functional.
Series [2] has as its system HeLa. Briefly: Cytotoxicity against human HeLa cells by MTT assay. It counts as functional.
Series [3] can be described thus: Cytotoxicity against human CAL1 cells by MTT assay. The format is functional.
The subject of series [4] is MCF7. Nature of the series: Cytotoxicity against human MCF7 cells by MTT assay. It counts as functional.
The test system of the next series is SW480. Nature of the series: Cytotoxicity against human SW480 cells by MTT assay. The format is functional.
A further series has as its system BT-483. Briefly: Antiproliferative activity against human BT-483 cells. It counts as functional, cell-based.
In series [5] the test system is A549. Nature of the series: Antiproliferative activity against human A549 cells. The format is functional, cell-based.
The target of series [6] is Protein deacetylase HDAC6 (Homo sapiens, UniProt Q9UBN7). Nature of the series: Inhibition of HDAC6 (unknown origin).
A further series has as its system U-266. Nature of the series: Antiproliferative activity against human U-266 cells. The format is functional, cell-based.
A further series has as its system NCI-H929. Nature of the series: Antiproliferative activity against human NCI-H929 cells. It counts as functional, cell-based.
The next series deals with RPMI-8226. Nature of the series: Antiproliferative activity against human RPMI-8226 cells. It counts as functional, cell-based.
Series [7] deals with MCF7. Nature of the series: Antiproliferative activity against human MCF7 cells. The format is functional, cell-based.
The next series has as its system Jurkat E6.1. Briefly: Antiproliferative activity against human Jurkat E6.1 cells. The format is functional, cell-based.
A short description of series [8]: Antiproliferative activity against human MED-MEB-8A cells. It counts as functional, cell-based.
Series [9] has as its system HeLa. Nature of the series: Antiproliferative activity against human HeLa cells. The format is functional, cell-based.
A further series deals with Histone deacetylase 8 (Homo sapiens, UniProt Q9BY41). Briefly: Inhibition of HDAC8 (unknown origin).
The subject of the next series is B16-F10. Nature of the series: Antiproliferative activity against mouse B16-F10 cells. The format is functional, cell-based.
The test system of series [10] is PC-3. Briefly: Antiproliferative activity against human PC-3 cells. The format is functional, cell-based.
Another series concerns KB. Nature of the series: Antiproliferative activity against human KB cells. The format is functional, cell-based.
The nature of series [11]: Inhibition of topoisomerase 2 (unknown origin). Also noted: species or system Homo sapiens.
Another series deals with T1, DNA topoisomerase 1 (Homo sapiens, UniProt P11387).
T1 sequence (P11387 whole entry): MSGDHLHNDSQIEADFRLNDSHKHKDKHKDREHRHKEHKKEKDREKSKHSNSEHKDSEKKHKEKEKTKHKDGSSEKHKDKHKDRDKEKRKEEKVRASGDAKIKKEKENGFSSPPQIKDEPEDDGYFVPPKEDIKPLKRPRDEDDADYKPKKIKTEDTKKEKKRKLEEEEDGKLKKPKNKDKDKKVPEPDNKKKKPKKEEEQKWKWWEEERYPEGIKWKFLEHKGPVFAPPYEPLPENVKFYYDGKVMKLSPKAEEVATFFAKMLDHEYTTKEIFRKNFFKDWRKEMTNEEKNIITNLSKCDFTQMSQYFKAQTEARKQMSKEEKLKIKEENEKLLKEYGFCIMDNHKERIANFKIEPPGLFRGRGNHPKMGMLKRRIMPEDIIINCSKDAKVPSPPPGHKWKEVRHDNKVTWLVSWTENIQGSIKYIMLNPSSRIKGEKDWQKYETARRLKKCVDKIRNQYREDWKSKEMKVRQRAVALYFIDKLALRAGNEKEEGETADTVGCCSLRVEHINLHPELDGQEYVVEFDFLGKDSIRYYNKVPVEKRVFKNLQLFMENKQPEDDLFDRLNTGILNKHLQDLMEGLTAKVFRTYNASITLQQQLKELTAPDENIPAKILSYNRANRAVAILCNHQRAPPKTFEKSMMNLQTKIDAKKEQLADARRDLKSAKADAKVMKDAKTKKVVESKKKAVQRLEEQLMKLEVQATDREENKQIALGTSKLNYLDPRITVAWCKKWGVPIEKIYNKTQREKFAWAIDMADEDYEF
Briefly: Inhibition of topoisomerase 1 (unknown origin).

Series [12] can be described thus: Antiproliferative activity against mouse P338 cells. It counts as functional, cell-based.
For series [13], the system named is HCT-116. Nature of the series: Antiproliferative activity against human HCT-116 cells. It counts as functional, cell-based.
The subject of series [14] is HeLa. Nature of the series: Antiproliferative activity against human HeLa cells incubated for 24 hrs by WST-1 assay. It counts as functional, cell-based.
For the next series, the target named is Histone deacetylase. Briefly: Inhibition of HDAC (unknown origin). The format is protein assay, Homo sapiens.
The target in series [15] is Hepatocyte growth factor receptor (Homo sapiens, UniProt P08581). Nature of the series: Inhibition of c-MET (unknown origin).
In series [16] the test system is A549. Briefly: Cytotoxicity against human A549 cells incubated for 72 hrs by MTT assay. The format is functional, cell-based. The note with it: A549, 72 h.
In series [17] the test system is HCT-116. Briefly: Cytotoxicity against human HCT-116 cells assessed as inhibition of cell growth incubated for 72 hrs by MTT assay. The format is functional, cell-based. Conditions: HCT-116, 72 h.
Series [18] can be described thus: Antiproliferative activity against human RPMI cells assessed as reduction cell viability incubated for 48 hrs by MTT assay. The format is functional, cell-based.
Series [19] deals with DNA (cytosine-5)-methyltransferase 3A (Homo sapiens, UniProt Q9Y6K1). Nature of the series: Inhibition of human recombinant DNMT3A (214 to 912 residues)expressed in Sf9 insect cells using lambda DNA as substrate by scintillation/filter plate assay.
The subject of series [20] is PC-3. Nature of the series: Antiproliferative activity against human PC-3 cells assessed as reduction cell viability incubated for 48 hrs by MTT assay. It counts as functional, cell-based. The note with it: PC-3, 48 h.
For series [21], the target named is DNA (cytosine-5)-methyltransferase 1 (Homo sapiens, UniProt P26358). Nature of the series: Inhibition of human recombinant full-length N-terminal GST tagged DNMT1 (2 to 1632 residues) expressed in Sf9 insect cells using poly(dI-dC) as substrate by hotspot assay.
A further series concerns U-937. Briefly: Antiproliferative activity against human U-937 cells assessed as reduction cell viability incubated for 48 hrs by MTT assay. The format is functional, cell-based. The note with it: U-937, 48 h.
The test system of another series is MDA-MB-231. Nature of the series: Antiproliferative activity against human MDA-MB-231 cells assessed as reduction cell viability incubated for 48 hrs by MTT assay. The note with it: MDA-MB-231, 48 h. It counts as functional, cell-based.
A further series deals with Raji. Briefly: Antiproliferative activity against human Raji cells assessed as reduction cell viability incubated for 48 hrs by MTT assay. It counts as functional, cell-based.

Here are results for eleven compounds from ChEMBL document CHEMBL5241080, “Quinoline anticancer agents active on DNA and DNA-interacting proteins: From classical to emerging therapeutic targets” (Eur J Med Chem, 2021).

Protein deacetylase HDAC6, sequence (Q9UBN7 whole entry): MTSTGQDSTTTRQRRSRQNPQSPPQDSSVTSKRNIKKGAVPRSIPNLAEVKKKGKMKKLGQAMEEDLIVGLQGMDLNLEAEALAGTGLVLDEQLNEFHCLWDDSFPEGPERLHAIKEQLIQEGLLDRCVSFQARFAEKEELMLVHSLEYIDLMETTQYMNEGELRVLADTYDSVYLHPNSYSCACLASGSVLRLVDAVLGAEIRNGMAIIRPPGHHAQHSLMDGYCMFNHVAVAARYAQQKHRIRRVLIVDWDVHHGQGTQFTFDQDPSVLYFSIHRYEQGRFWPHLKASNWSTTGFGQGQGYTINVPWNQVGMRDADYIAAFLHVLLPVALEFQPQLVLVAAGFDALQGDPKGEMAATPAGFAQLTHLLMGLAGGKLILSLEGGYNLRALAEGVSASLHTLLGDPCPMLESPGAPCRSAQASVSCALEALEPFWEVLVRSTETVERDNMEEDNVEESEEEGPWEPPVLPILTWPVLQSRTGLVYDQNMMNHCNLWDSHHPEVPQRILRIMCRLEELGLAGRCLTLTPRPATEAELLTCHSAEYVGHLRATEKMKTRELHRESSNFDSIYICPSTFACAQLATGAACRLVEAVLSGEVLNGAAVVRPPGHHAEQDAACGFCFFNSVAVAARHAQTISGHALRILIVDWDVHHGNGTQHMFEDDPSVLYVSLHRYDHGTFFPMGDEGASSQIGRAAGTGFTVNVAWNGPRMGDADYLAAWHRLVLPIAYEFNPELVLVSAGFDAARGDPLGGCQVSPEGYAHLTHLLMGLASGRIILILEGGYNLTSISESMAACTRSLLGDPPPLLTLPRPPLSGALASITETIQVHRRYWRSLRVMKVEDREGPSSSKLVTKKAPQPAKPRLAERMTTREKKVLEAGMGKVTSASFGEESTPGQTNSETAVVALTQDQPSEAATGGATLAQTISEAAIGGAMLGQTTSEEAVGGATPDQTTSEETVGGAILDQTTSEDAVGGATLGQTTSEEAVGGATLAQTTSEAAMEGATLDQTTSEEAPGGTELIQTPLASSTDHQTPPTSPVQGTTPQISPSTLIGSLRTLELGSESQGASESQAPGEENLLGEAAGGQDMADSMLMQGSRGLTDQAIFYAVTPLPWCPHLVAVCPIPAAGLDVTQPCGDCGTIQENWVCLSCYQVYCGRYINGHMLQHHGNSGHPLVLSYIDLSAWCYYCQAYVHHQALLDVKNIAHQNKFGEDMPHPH
DNA (cytosine-5)-methyltransferase 3A, sequence (Q9Y6K1 whole entry, looked up, the tested form may be a part): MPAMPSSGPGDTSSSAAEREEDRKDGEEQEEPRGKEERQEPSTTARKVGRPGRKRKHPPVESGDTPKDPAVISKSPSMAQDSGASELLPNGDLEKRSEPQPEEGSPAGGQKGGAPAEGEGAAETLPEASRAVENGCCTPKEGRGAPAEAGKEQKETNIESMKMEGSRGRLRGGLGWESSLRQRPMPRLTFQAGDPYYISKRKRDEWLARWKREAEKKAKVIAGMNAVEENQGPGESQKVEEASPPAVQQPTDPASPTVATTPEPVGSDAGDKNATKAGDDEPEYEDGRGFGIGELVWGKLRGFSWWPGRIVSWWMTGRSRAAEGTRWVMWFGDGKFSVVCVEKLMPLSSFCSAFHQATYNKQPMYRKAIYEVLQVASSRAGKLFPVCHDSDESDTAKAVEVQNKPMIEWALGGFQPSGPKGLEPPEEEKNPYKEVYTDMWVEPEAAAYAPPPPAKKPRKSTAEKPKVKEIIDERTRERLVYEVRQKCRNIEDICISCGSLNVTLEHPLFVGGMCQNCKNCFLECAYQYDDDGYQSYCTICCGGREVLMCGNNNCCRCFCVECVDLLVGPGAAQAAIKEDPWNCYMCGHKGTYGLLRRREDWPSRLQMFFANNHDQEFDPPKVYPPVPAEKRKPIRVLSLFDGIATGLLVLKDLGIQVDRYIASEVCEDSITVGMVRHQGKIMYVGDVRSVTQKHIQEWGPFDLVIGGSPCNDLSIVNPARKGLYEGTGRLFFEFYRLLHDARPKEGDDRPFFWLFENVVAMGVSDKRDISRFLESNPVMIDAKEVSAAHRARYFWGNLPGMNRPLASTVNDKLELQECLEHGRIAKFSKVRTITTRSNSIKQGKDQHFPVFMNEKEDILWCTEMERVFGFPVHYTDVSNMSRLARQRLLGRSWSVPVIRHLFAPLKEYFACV
Hepatocyte growth factor receptor, sequence (P08581 whole entry): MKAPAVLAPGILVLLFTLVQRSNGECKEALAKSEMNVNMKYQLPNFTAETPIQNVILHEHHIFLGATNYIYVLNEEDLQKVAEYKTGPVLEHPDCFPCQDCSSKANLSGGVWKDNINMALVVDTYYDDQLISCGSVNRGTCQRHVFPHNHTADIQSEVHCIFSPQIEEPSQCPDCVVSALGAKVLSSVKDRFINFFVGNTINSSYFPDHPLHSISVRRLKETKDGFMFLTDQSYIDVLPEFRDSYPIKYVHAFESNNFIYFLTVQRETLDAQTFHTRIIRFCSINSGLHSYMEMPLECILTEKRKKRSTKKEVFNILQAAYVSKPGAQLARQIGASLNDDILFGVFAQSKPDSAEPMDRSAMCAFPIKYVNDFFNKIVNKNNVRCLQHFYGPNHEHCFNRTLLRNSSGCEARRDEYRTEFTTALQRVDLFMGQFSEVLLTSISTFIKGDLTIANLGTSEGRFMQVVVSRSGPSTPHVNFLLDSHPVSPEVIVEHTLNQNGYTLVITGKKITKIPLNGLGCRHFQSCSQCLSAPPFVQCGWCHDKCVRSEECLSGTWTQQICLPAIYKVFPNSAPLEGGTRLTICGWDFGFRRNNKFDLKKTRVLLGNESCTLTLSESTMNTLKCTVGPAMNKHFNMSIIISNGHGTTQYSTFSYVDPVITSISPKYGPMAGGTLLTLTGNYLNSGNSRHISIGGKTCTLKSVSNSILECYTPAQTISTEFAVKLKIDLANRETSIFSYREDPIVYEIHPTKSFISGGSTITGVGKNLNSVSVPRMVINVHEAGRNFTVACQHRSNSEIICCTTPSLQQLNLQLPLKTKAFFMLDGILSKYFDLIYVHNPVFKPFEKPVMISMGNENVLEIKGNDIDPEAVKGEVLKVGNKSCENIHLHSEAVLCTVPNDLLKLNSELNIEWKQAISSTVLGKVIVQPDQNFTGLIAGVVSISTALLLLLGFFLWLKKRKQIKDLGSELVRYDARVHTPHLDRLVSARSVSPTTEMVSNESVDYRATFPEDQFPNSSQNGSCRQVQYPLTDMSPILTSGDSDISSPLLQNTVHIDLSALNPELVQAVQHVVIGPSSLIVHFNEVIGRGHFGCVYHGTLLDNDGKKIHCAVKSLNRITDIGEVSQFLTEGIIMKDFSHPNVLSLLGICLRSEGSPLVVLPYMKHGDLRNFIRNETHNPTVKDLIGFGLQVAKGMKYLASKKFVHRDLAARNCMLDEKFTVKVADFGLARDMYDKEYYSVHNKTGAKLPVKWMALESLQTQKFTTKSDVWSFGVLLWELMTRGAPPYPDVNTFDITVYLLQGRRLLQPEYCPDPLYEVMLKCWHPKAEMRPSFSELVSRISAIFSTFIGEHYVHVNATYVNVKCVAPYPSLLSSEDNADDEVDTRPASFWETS
Histone deacetylase 8, sequence (Q9BY41 whole entry): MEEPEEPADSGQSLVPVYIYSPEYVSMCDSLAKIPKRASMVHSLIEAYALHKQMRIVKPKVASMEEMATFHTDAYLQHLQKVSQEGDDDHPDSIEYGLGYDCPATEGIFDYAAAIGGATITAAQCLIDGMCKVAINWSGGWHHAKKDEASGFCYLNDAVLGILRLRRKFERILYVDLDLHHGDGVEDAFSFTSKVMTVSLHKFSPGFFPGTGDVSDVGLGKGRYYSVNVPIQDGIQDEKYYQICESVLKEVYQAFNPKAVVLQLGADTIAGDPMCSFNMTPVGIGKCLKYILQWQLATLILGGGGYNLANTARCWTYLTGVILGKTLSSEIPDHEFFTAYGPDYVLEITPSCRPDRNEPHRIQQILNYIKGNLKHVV

The compound `COc1ccc2c(c1)/C(=N\OCCN1CCCC1)c1c-2c(O)nc2ccccc12` came in with a bioavailability in series [1] of 10.9%.
As to `CCN(CC)CCNc1nc2c(Nc3ccccc3)c3ccccc3nc2s1`, the GI50 (with SW-620; in the series on C-33-A; in the series on K-562R; with HeLa [2]; in series [3]; with MCF7 [4]) was 15.9 µM in each case. In the series with SW480, this compound displayed a 50% growth inhibitory concentration (GI50) of 15.9 µM.
On to `COc1ccc2c(c1)/C(=N\OCCCN(C)C)c1c-2c(N2CCNCC2)nc2ccccc12`, for which, in the series with BT-483, inhibition was half-maximal at 1100 nM (IC50).
For `O=C(/C=C/c1cccc(S(=O)(=O)c2ccc3ccccc3n2)c1)NO`, the IC50 with A549 [5] amounted to 0.27 µM; in series [6] it was 0.291 nM; in the series with U-266 it was 40.6 µM; with NCI-H929, 9.14 µM; in the series with RPMI-8226, 7.49 µM.
As for `COc1cc(NC(=O)NOCCCCCC(=O)NO)c2nc(OC)cc(C)c2c1`, the IC50 with A549 [5] was determined as 9.12 µM; in the series on MCF7 [7] it was 11.4 µM; with Jurkat E6.1, 7.19 µM; in series [8], 590 nM; in the series on HeLa [9], 11 µM; against Histone deacetylase 8 it was 1.74 nM. Moreover, the IC50 in the series on B16-F10 came to 9.76 µM.
As to `O=C(NO)c1ccc(CNc2cccc3cccnc23)cc1`, the IC50 is 5.33 µM in the series on A549 [5], 3.28 µM in the series with PC-3 [10] and 2.73 nM in [6].
Take `CN(C)CCNc1nc2cc(O)ccc2c2c1C(=O)c1ccccc1-2`: the IC50 in the series on KB came out at 9.6 nM; in series [11], 6.5 µM; at DNA topoisomerase 1, 2000 nM; in series [12], 1.1 nM.
`CCN(CC)CCOC(=O)c1ccc2c(c1)c1nc3ccccc3c(OCCN(CC)CC)c1n2CCN(CC)CC` came in with an IC90 in the series on HCT-116 [13] of under 10 µM.
Turning to `C/C(=C\c1ccc(C(=O)NO)cc1)CNc1cnc2c(Br)cccc2c1`, the IC50 was found to be 1800 nM in the series on HeLa [14] and 28 nM against Histone deacetylase.
For `COc1cc2c(Oc3ccc(NC(=O)C4CCN(c5ccc(F)cc5)C4=O)cc3)ccnc2cc1OCCCCCCC(=O)NO` (stereo unspecified), the values for the IC50 (in [15]; in the series with A549 [16]; in the series with HCT-116 [17]) were 12.5 nM, 1080 nM and 0.54 nM, respectively.
On to `O=C(Nc1ccc(NC(=O)c2ccc(Nc3ccnc4ccccc34)cc2)cc1)OCc1ccccc1`, for which the IC50 in series [18] is 2400 nM; in series [19] it was 17 µM; with PC-3 [20], 900 nM; in [21] it was 67 µM; in the series on U-937, 400 nM; with MDA-MB-231, 900 nM. Besides, the 50% inhibitory concentration (IC50) in the series with Raji is 400 nM.

A word on the bioavailability: it is the share of a dose that reaches the circulation, judged against a reference dose that is usually intravenous. High values mean good availability, low ones poor availability. A word on the GI50: it is the concentration at which growth is held to half of that of the control. A high value points to lower sensitivity of the cells. One may read the IC50 as the concentration that inhibits the measured activity by half. A word on the IC90: it is the point of the concentration-response curve where the effect stands at 90%. A lower IC90 goes with an effect from little substance.
